From ChEMBL document CHEMBL1155971, “Discovery of a novel class of isoxazoline voltage gated sodium channel blockers” (Bioorg Med Chem Lett, 2009) come the findings set out here.

Series [1] concerns the target T1, Sodium channel protein type 9 subunit alpha (Homo sapiens, UniProt Q15858). Briefly: Inhibition of human Nav1.7 channel expressed in HEK cells at 1 uM by FRET assay. To be noted: HEK293. The class given is cell-based.
Target sequence in this assay (Q15858 whole entry, looked up): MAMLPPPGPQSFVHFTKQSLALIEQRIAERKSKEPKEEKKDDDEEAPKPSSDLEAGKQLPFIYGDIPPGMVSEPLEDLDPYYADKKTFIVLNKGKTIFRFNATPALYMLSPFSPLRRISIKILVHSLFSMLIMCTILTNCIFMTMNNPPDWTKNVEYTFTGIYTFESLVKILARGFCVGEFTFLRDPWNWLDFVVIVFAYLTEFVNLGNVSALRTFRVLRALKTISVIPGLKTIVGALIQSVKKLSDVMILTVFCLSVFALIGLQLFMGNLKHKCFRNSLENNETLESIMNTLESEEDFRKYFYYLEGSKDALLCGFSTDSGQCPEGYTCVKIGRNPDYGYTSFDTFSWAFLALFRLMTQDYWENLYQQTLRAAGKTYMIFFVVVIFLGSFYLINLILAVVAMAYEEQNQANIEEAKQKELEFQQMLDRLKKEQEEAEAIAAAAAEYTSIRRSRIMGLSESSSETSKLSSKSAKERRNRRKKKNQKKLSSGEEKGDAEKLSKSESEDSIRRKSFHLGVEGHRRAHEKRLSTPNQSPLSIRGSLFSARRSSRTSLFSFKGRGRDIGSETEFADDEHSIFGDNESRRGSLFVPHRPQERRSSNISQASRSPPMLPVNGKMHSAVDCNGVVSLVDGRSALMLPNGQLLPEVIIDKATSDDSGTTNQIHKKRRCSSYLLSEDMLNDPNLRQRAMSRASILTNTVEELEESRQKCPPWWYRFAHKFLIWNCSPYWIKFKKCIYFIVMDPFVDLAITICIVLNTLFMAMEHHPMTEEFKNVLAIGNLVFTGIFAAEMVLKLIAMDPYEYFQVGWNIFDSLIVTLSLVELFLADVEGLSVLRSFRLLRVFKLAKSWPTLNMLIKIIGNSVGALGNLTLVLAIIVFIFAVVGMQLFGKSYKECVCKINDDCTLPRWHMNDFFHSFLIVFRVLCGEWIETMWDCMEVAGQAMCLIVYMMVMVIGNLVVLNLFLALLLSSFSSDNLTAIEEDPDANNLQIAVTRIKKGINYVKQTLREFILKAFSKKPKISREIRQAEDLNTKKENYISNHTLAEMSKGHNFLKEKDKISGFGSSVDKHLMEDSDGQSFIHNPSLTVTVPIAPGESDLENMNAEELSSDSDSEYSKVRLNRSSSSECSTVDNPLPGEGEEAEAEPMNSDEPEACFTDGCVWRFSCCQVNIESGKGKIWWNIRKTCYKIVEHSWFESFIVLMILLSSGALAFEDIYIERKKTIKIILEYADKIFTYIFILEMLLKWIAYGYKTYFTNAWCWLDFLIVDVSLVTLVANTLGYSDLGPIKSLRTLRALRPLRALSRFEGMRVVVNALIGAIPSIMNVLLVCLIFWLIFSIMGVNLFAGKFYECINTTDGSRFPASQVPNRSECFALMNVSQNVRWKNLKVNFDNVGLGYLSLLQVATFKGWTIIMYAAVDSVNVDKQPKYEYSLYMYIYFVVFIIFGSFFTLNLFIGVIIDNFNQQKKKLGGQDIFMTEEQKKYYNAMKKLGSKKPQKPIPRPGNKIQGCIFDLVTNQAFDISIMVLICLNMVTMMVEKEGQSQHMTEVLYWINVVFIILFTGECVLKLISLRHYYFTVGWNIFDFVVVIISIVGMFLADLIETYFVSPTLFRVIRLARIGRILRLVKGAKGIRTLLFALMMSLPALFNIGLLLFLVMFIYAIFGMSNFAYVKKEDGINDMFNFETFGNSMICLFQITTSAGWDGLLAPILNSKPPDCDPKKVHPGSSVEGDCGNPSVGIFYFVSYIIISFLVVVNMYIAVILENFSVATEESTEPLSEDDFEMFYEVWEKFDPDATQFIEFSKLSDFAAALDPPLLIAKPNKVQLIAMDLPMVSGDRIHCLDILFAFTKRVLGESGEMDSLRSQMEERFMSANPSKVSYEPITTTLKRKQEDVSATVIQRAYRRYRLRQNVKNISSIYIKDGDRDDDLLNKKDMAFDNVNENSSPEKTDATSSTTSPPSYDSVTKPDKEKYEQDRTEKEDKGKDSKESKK
For series [2], the target named is T1, Sodium channel protein type 9 subunit alpha. The experiment in a line: Inhibition of human Nav1.7 channel expressed in HEK cells by FRET assay. The series is classed as cell-based, HEK293.
Target sequence in this assay (Q15858 whole entry): as the sequence (Q15858 whole entry, looked up) above
Series [3] deals with Rattus norvegicus. Briefly: Analgesic activity in Freund's complete adjuvant-induced rat pain model assessed as reversal of mechanic allodynia at 3 mg/kg, po after 3 hrs. The class given is functional.
Series [4] deals with Rattus norvegicus. Briefly: Analgesic activity in Freund's complete adjuvant-induced rat pain model assessed as reversal of mechanic allodynia at 10 mg/kg, po after 3 hrs. The class given is functional.
For series [5], the system named is Rattus norvegicus. Briefly: Analgesic activity in spinal nerve ligation-induced rat neuropathic pain model assessed as reversal of allodynia at 10 mg/kg, po after 3 hrs. The series is classed as functional.
The nature of series [6]: Plasma clearance in Sprague-Dawley rat. The class given is ADME, organism-based.
Series [7] is described as follows: Half life in Sprague-Dawley rat. The class given is ADME, organism-based. The following applies: in vivo.
Series [8] in a line: Bioavailability in Sprague-Dawley rat. The series is classed as ADME, organism-based. To be noted: in vivo.
Series [9] concerns Rattus norvegicus. Briefly: Analgesic activity in Freund's complete adjuvant-induced rat pain model assessed as reversal of mechanic allodynia at 3 mg/kg, po after 2 hrs. The class given is functional.

By inhibition is commonly meant the percentage by which the read-out fell short of the control. Higher therefore signals a response far below the control. Compound `NC(=O)c1ccc(C2CC([C@@H]3CCC[C@H]3C(=O)NCc3ccc(OC(F)(F)F)cc3)=NO2)cc1` (mixture of isomers) had an inhibition in [1] of 0%. For orientation: IC50 means the midpoint of a concentration-inhibition curve. Consider `O=C(NCc1ccc(OC(F)(F)F)cc1)[C@@H]1CCC[C@H]1C1=NCC(c2ccccc2)O1` (mixture of isomers), for which the IC50 in [2] worked out at 620 nM. The compound further had an inhibition in series [1] of 71%.

Regarding `O=C(O)c1ccc(C2CC([C@@H]3CCC[C@H]3C(=O)NCc3ccc(OC(F)(F)F)cc3)=NO2)cc1` (mixture of isomers), the inhibition in series [1] worked out at 0%. `CC1(c2ccccc2)CC([C@@H]2CCC[C@H]2C(=O)NCc2ccc(OC(F)(F)F)cc2)=NO1` (single isomer, unassigned; diastereomer c) [listing 1 of 2 here] came in with an inhibition in series [1] of 48%. `COC(=O)c1ccc(C2CC([C@@H]3CCC[C@H]3C(=O)NCc3ccc(OC(F)(F)F)cc3)=NO2)cc1` (mixture of isomers) yielded an IC50 in [2] of 340 nM. The compound also displayed an inhibition in series [1] of 87%. The compound `c1ccc(-c2cc([C@@H]3CCC[C@H]3C3=NOC(c4ccccc4)C3)no2)cc1` (mixture of isomers) displayed an inhibition in series [1] of 13%. `O=C(NCc1ccc(OC(F)(F)F)cc1)[C@@H]1CCC[C@H]1C1=NOC(CO)(c2ccccc2)C1` (mixture of isomers) came in with an inhibition in [1] of 23%. In series [1], `CC(C)(C)Oc1ccc(CNC(=O)[C@@H]2CCC[C@H]2C2=NOC(C)(c3ccccc3)C2)cc1` (mixture of isomers) displayed an inhibition of 26%.

As to `CC1(c2ccccc2)CC([C@@H]2CCC[C@H]2C(=O)NCc2ccc(OC(F)(F)F)cc2)=NO1` (relative stereo) [listing 1 of 2 here], the inhibition in series [1] worked out at 35%. For the compound `CC1(c2ccccc2)CC([C@@H]2CCC[C@H]2C(=O)NCc2ccc(OC(F)(F)F)cc2)=NO1` (relative stereo) [listing 2 of 2 here], the Activity with Rattus norvegicus [3] (3 mg/kg) amounted to 31%. Regarding `O=C(NCc1ccc(OC(F)(F)F)cc1)[C@@H]1CCC[C@H]1c1cc(-c2ccc(Cl)cc2)on1` (racemic), the inhibition in series [1] was determined as 33%. `CC1(c2ccccc2)CC([C@@H]2CCC[C@H]2C(=O)NCc2ccc(OC(F)(F)F)cc2)=NO1` (single isomer, unassigned; diastereomer b) [listing 1 of 2 here] had an inhibition in series [1] of 37%. Consider `CC1(c2ccccc2)CC([C@@H]2CCC[C@H]2C(=O)Nc2ccc3ncccc3c2)=NO1` (mixture of isomers), for which the inhibition in series [1] came to 17%.

Consider `COc1ccc(CNC(=O)[C@@H]2CCC[C@H]2C2=NOC(C)(c3ccccc3)C2)cc1` (relative stereo), for which, in [1], the inhibition was 16%.

In turn, `CC(C)Oc1ccc(CNC(=O)[C@@H]2CCC[C@H]2C2=NOC(C)(c3ccccc3)C2)cc1` (mixture of isomers) gave an IC50 in series [2] of 1500 nM.

In series [2], `O=C(NCc1ccc(OC(F)(F)F)cc1)[C@@H]1CCC[C@H]1C1=NOC(c2ccccc2)C1` (mixture of isomers) displayed an IC50 of 780 nM. In addition, the inhibition in [1] was 76%. Regarding `CC1(c2ccccc2)CC([C@@H]2CCC[C@H]2C(=O)NCc2ccccc2)=NO1` (mixture of isomers), in [1], the inhibition amounted to 19%.

In turn, `FC(F)(F)Oc1ccc(C2CC([C@@H]3CCC[C@H]3c3cc(-c4ccccc4)on3)=NO2)cc1` (mixture of isomers) yielded an inhibition in [1] of 18%. Same read-out and setting: in the case of `CS(=O)(=O)c1ccc(C2CC([C@@H]3CCC[C@H]3C(=O)NCc3ccc(OC(F)(F)F)cc3)=NO2)cc1` (mixture of isomers) it was 26%. Regarding `CN(Cc1ccc(-c2ccccc2S(C)(=O)=O)cc1)C(=O)[C@@H]1CCC[C@H]1C1=NOC(C)(c2ccccc2)C1` (mixture of isomers), the inhibition in [1] was 0%.

Take `CC1(c2ccccc2)CC([C@@H]2CCC[C@H]2C(=O)NCc2ccc(OC(F)(F)F)cc2S(C)(=O)=O)=NO1` (mixture of isomers): in [1], the inhibition was 13%. Regarding `CC1(c2ccccc2)CC([C@@H]2CCC[C@H]2C(=O)NCc2ccc(OC(F)(F)F)cc2)=NO1` (mixture of isomers) [listing 1 of 2 here], the inhibition in series [1] was 63%. `CC1(c2ccccc2)CC([C@@H]2CCC[C@H]2C(=O)NCc2ccc(OC(F)(F)F)cc2)=NO1` (single isomer, unassigned; diastereomer c) [listing 2 of 2 here] returned an IC50 in series [2] of 1200 nM. Moreover, the Activity with Rattus norvegicus [3] (3 mg/kg) came out at 20%. As for `CN(Cc1ccc(-c2ccccc2S(N)(=O)=O)cc1)C(=O)[C@@H]1CCC[C@H]1C(=O)NCc1ccc(OC(F)(F)F)cc1` (relative stereo), it took 830 nM to reach half-maximal inhibition in [2] (IC50). In addition, the Activity was determined as 54% in the series with Rattus norvegicus [4], 35% with Rattus norvegicus [5] and 31% in the series with Rattus norvegicus [3].

In general, clearance refers to the rate of elimination divided by the concentration. A higher clearance goes with efficient removal. In general, half-life refers to the time in which the quantity being followed falls by half. A lower half-life goes with rapid decline. The term bioavailability denotes the share of a dose that reaches the circulation, judged against a reference dose that is usually intravenous. `CC1(c2ccccc2)CC([C@@H]2CCC[C@H]2C(=O)NCc2ccc(OC(F)(F)F)cc2)=NO1` (mixture of isomers) [listing 2 of 2 here] displayed an IC50 in series [2] of 620 nM. In addition, the clearance in series [6] was found to be 17.8 mL/min/kg. Moreover, the Activity with Rattus norvegicus [3] (3 mg/kg) is on record as 48%; with Rattus norvegicus [9], 20%. This compound had a half-life in [7] of 2.9 h. For the same compound, the bioavailability in series [8] worked out at 16%. For the compound `COC(=O)c1cccc(C2CC([C@@H]3CCC[C@H]3C(=O)NCc3ccc(OC(F)(F)F)cc3)=NO2)c1` (mixture of isomers), the IC50 in series [2] was found to be 710 nM. Besides, the inhibition in series [1] turned out to be 75%. The compound `O=C(NCc1ccc(OC(F)(F)F)cc1)[C@@H]1CCC[C@H]1c1nc(-c2ccccc2)co1` (racemic) registered an inhibition in series [1] of 19%. Still for that read-out and setting: in the case of `CS(=O)(=O)c1ccc(C2CC([C@@H]3CCC[C@H]3c3cc(-c4ccccc4)on3)=NO2)cc1` (mixture of isomers) it was 43%; in that of `CC1(c2ccccc2)CC([C@@H]2CCC[C@H]2C(=O)NCc2ccc(Cl)cc2)=NO1` (mixture of isomers), 15%; in that of `CC1(c2ccccc2)CC([C@@H]2CCC[C@H]2C(=O)Nc2ccc(OC(F)(F)F)cc2)=NO1` (mixture of isomers), 30%. Compound `O=C(NCc1ccc(OC(F)(F)F)cc1)[C@@H]1CCC[C@H]1C1=NOC(c2ccccn2)C1` (mixture of isomers) showed an inhibition in [1] of 0%. As for `CC1(c2ccccc2)CC([C@@H]2CCC[C@H]2C(=O)NCc2ccc(OC(F)(F)F)cc2)=NO1` (single isomer, unassigned; diastereomer a) [listing 1 of 2 here], the IC50 in [2] is 960 nM. The Activity in the series with Rattus norvegicus [5] was 21%; in the series on Rattus norvegicus [3] (3 mg/kg), 53%. In the case of `O=C(NCc1ccc(OC(F)(F)F)cc1)[C@@H]1CCC[C@H]1C1=NOC(c2ccc(OC(F)(F)F)cc2)C1` (mixture of isomers), the IC50 in [2] stood at 500 nM. The same compound gave an inhibition in series [1] of 93%. As to `CC1(c2ccccc2)CC([C@@H]2CCC[C@H]2C(=O)NCc2ccc(OC(F)(F)F)cc2)=NO1` (single isomer, unassigned; diastereomer b) [listing 2 of 2 here], in the series on Rattus norvegicus [3] (3 mg/kg), the Activity was determined as 26%. In [2], `O=C(NCc1ccc(OC(F)(F)F)cc1)[C@@H]1CCC[C@H]1C1=NC(c2ccc(Cl)cc2)CO1` (mixture of isomers) showed an IC50 of 970 nM. For the same compound, the inhibition in [1] is 56%. The compound `O=C(NCc1ccc(OC(F)(F)F)cc1)[C@@H]1CCC[C@H]1c1cc(-c2ccccc2)on1` (racemic) returned an inhibition in series [1] of 38%. Compound `Clc1cc(Cl)cc(C2CC([C@@H]3CCC[C@H]3c3cc(-c4ccccc4)on3)=NO2)c1` (mixture of isomers) had an inhibition in series [1] of 35%. Compound `O=C(NCc1ccc(OC(F)(F)F)cc1)[C@@H]1CCC[C@H]1C1=NOC(c2ccc(Cl)cc2)C1` (mixture of isomers) displayed an IC50 in series [2] of 430 nM. For the same compound, the inhibition in [1] came out at 92%. As to `CNC(=O)c1ccc(C2CC([C@@H]3CCC[C@H]3C(=O)NCc3ccc(OC(F)(F)F)cc3)=NO2)cc1` (mixture of isomers), the inhibition in [1] is 14%.

Regarding `CC1(c2ccccc2)CC([C@@H]2CCC[C@H]2C(=O)NCc2ccc(OC(F)(F)F)cc2)=NO1` (single isomer, unassigned; diastereomer a) [listing 2 of 2 here], the inhibition in series [1] turned out to be 64%. Compound `CC1(c2ccccc2)CC([C@@H]2CCC[C@H]2C(=O)NCc2ccc(C(F)(F)F)cc2)=NO1` (mixture of isomers) yielded an IC50 in series [2] of 2500 nM. This counts as single-digit micromolar.

In turn, `O=C(NCc1ccc(OC(F)(F)F)cc1)[C@@H]1CCC[C@H]1C1=NOC(c2cccc(Cl)c2)C1` (mixture of isomers) displayed an IC50 in series [2] of 480 nM. The inhibition in [1] worked out at 90%.

Compound `CC1(c2ccccc2)CC([C@@H]2CCC[C@H]2C(=O)NCc2ccc(-c3ccccc3S(C)(=O)=O)cc2)=NO1` (mixture of isomers) displayed an inhibition in series [1] of 0%. In the case of `O=C(NCc1ccc(OC(F)(F)F)cc1)[C@@H]1CCC[C@H]1c1ncc(-c2ccccc2)o1` (racemic), the inhibition in [1] was determined as 0%.
